Patent publication US20100144543A1, “Epigenetic silencing of tumor suppressor genes” (The Salk Institute for Biological Studies, priority 2008, published 2010)
Numbered stars: 1 amine (or outer) side, 2 acyl side, 3 side chain; on linkers, the order of the positions; unused ones are H or OH. Bridge positions count the residues as written; N and C are the ends. Square brackets hold non-standard residues; d marks the D form. Peptide text beside a SMILES is read from it. I, II: the chains in the order shown. Actinocin(9to1) = Cc1c2oc3c(C)ccc(C(=O)[*:1])c3nc-2c(C(=O)[*:2])c(N)c1=O; NMeV = CN[C@H](C(=O)O)C(C)C; Sar = CNCC(=O)O

Key:
Format in all cases: cell-based, human
p16 [1] = experiment: qPCR expression analysis of CTCF target gene p16 upon inhibition of PARP activity; settings: MDA-MB-435 cells, 24 hours, 5 mM 3-ABA, normalized to c-Myc
Protocol: (§1) Next, we examined whether PARlation of target proteins impacts the expression of CTCF-regulated tumor suppressor genes. To achieve this, we perturbed cellular PARlation activity in p16-expressing cells by two approaches: first, incubation with the broad-spectrum PARP inhibitor 3-ABA; and second, shRNA-mediated ablation of PARP-1. […] Results are normalized to c-Myc levels. Error bars represent ±standard deviation.
(§2) PARP-1 knockdown was achieved using the MISSION™ Lentiviral shRNA system from Sigma. Lentiviral particles were packaged in HEK293T cells, with virus collected 24 hours post-transfection. Cells infected with shRNA-containing virus and polybrene were selected using puromycin at 72 hours post infection.

CTCF = experiment: PARlation status of CTCF, IP with anti-PAR antibody; settings: MDA-MB-435 cells, treated with 3-ABA for 24 hours
Protocol: As described above, CTCF may be important for maintaining an active p16 gene. To further investigate possible CTCF defects that may impact its function in p16-silenced T47D breast cancer cells, we examined its post-translational modifications and association with several known protein interaction partners. […] In addition, western blots were performed to determine the protein levels of CTCF and putative interacting partners in MDA-MB-435 and T47D cells (FIG. 4B). […] Moreover, PARP-1 and Nucleolin appear to associate with CTCF in a mutually exclusive manner, with Nucleolin being present in CTCF complexes only in p16 expressing cells. To explore this further, we examined the PARlation status of CTCF in each cell type using an antibody that recognizes ADP-ribose polymers (PAR). Unexpectedly, we found PARlation associated with both CTCF and Nucleolin in p16-expressing MDA-MB-435 cells but not in p16-silenced TD47 cells (FIG. 4D, upper panels). […] Inputs are equal to 2.5% starting material.
2 mg of whole cell lysates were diluted in IP buffer with 0.5% Triton X-100. Protein mixes were pre-cleared for 1-2 hours with protein G Sepharose, after which the beads were removed and CTCF (Upstate) or anto-phosphotyrosine (Upstate) antibody added overnight at 4° C. to capture complexes. Complexes were recovered with protein G Sepharose, washed 4 times in IP buffer and subsequently analyzed by SDS-PAGE.

RASSF1A [2] = experiment: qPCR expression analysis of CTCF target gene RASSF1A upon inhibition of PARP activity; settings: MDA-MB-435 cells, 24 hours, 5 mM 3-ABA, normalized to c-Myc
Protocol: as §1, §2

RASSF1A [3] = experiment: Inhibition of transcription, RT-PCR of RASSF1A; settings: MDA-MB-435 cells, 24 hours, 2.5 μg/ml Actinomycin D or 1 μM Flavopiridol
From the text: (§3) CTCF is a ubiquitous, multifunctional protein that has a critical role in organizing distinct chromosomal domains through boundary/insulator formation (Filippova et al. (2005) “Boundaries between chromosomal domains of X inactivation and escape bind CTCF and lack CpG methylation during early development.” Dev Cell 8: 31-42; Ishihara et al. (2006) “CTCF-dependent chromatin insulator is linked to epigenetic remodeling.” Mol Cell 23: 733-742; Splinter et al. (2006) “CTCF mediates long-range chromatin looping and local histone modification in the beta-globin locus.” Genes Dev 20: 2349-2354) and in repressing or activating transcription. Because we saw a pronounced change in chromatin structure upstream of the p16 gene when active or silenced (FIG. 1), we explored the possibility that CTCF can associate within this region. […] Yet, we detected CTCF binding at a well-characterized target gene, c-Myc, in both p16-expressing and non-expressing cell types. […] CTCF was immunoprecipitated and analyzed for association with the p16^INK4a and RASSF1A gene. […]
(§4) MDA-MB-435 cells were treated with Flavopiridol (Sigma) or Actinomycin D (Sigma) at 1 μM and 2.5 μg/ml, respectively, for 24 hours. At this time cells were harvested and analyzed for gene expression and CTCF binding.

p16 [4] = experiment: Inhibition of transcription, RT-PCR of p16; settings: MDA-MB-435 cells, 24 hours, 2.5 μg/ml Actinomycin D or 1 μM Flavopiridol
From the text: as §3, §4

p16 gene = experiment: p16 mRNA induction after AZA treatment (RT-PCR, qPCR); settings: T47D cells treated with both AZA and Trichostatin A
From the text: The p16 tumor suppressor gene is commonly silenced in numerous types of human cancers and remains a relevant therapeutic target of wide interest. One method that is extensively employed to restore p16 expression, both clinically and in vitro, is treatment of cancer cells with hypomethylating-nucleoside analogues such as 5′AZA-2′-deoxycytidine (AZA) (Otterson et al. (1995) “CDKN2 gene silencing in lung cancer by DNA hypermethylation and kinetics of p16INK4 protein induction by 5-aza 2′ deoxycytidine.” Oncogene 11: 1211-1216; Schrump et al. (2006) “Phase I study of decitabine-mediated gene expression in patients with cancers involving the lungs, esophagus, or pleura.” Clin Cancer Res 12: 5777-5785), which reverses DNA methylation. We reasoned that treatment of cells with AZA might also restore CTCF binding at the p16 upstream promoter through one of two mechanisms. First, CTCF is known to bind DNA in a methylation-sensitive fashion (Hark et al. (2000) “CTCF mediates methylation-sensitive enhancer-blocking activity at the H19/Igf2 locus.” Nature 405: 486-489); thus, demethylation of the p16 locus might allow CTCF to reassociate. […]

With `NC(=O)c1cccc(N)c1` [3-ABA, 3-Aminobenzamide] the “p16 mRNA levels” value (p16 [1]) was “significant reduction”, the “PARlation associated with CTCF and Nucleolin” value (CTCF) was “inhibited” and the “RASSF1A mRNA levels” value (RASSF1A [2]) was “dramatic decrease”.

With `Cc1c2oc3c(C)ccc(C(=O)N[C@@H]4C(=O)N[C@H](C(C)C)C(=O)N5CCC[C@H]5C(=O)N(C)CC(=O)N(C)[C@@H](C(C)C)C(=O)O[C@@H]4C)c3nc-2c(C(=O)N[C@@H]2C(=O)N[C@H](C(C)C)C(=O)N3CCC[C@H]3C(=O)N(C)CC(=O)N(C)[C@@H](C(C)C)C(=O)O[C@@H]2C)c(N)c1=O` [Actinomycin D] (I: T[dV]P[Sar][NMeV] / II: T[dV]P[Sar][NMeV]; ester I:1-I:C, II:1-II:C; linker I:N-II:N via Actinocin(9to1)) the RASSF1A transcription (RASSF1A [3]) was “inhibition” and the p16 transcription (p16 [4]) was “inhibition”.

`CN1CC[C@H](c2c(O)cc(O)c3c(=O)cc(-c4ccccc4Cl)oc23)[C@H](O)C1` [Flavopiridol] was tested, and the RASSF1A transcription (RASSF1A [3]) was “inhibition” and the p16 transcription (p16 [4]) was “inhibition”.

With `CC(/C=C/C(=O)NO)=C\[C@@H](C)C(=O)c1ccc(N(C)C)cc1` [Trichostatin A] the “synergistic p16 gene reactivation” value (p16 gene) was “No synergistic p16 gene reactivation”.
